Assay results as given in US12708791B2, “Management of dermal neurofibromatosis lesions” (Sun Pharmaceutical Industries, Inc., priority 2020, dated 2026).
Several values for one entry are separate records, joined by “and”; a condition that tells them apart may be missing. Equal entries are not always repeated.

How the values were obtained:
Format in all cases: in vivo, human
neurofibroma lesions [1] = assay: Lesion size and growth rate after PDT treatment
Source text: (§1) (day 2), and 2 to 4 (day 14-28) weeks after light treatment, for evaluation of cutaneous adverse events. At day 2, tumors were biopsied using a punch technique and subjected to light microscopy exam, TUNEL assay (DeadEnd™ Colorimetric TUNEL System, Promega, Madison, WI), and DAPI (4′,6-diamidino-2-phenylindole) staining (ab228549, Abcam, Cambridge, MA). Additional follow-up visits for measurement of lesions were made at periods of 3 months up to one year. See FIG. 1 for a schematic of the study design. The primary outcome for this clinical study was MTD, as measured in the dose escalation using the DLT as defined above. A secondary outcome measured efficacy defined by change in lesion size. The area of the lesion was estimated at baseline and during follow-up visits by measuring the long and short axis of the lesion. Average growth rates were calculated and comparisons made between ALA-treated and placebo lesions within the same subject. The null hypothesis was that there would be no difference in the growth rates of ALA-treated lesions when paired with same-subject placebo lesions. The alternative hypothesis was there would be a difference in the ALA and placebo lesion growth rates.

[2] = system: superficial dermal neurofibromas; assay: Photosensitizer uptake and conversion: PpIX fluorescence in excised tumors by confocal microscopy
Method: Four adult subjects were enrolled (2 males, 2 females) in part 1. Three tumor groups for each subject consisted of untreated negative controls, tumors treated with drug vehicle only, and ALA (Levulan® Kerastick® Topical Solution, Sun Pharma, Wilmington, MA, USA) treated tumors. Treated tumors were incubated with ALA or vehicle three hours (2 subjects) or overnight (2 subjects), then excised and subjected to fluorescence microscopy studies to measure mean fluorescence indicating PpIX conversion in tumors. Four adult subjects (2 males, 2 females) participated in part 1. Ages ranged from 39 to 67 yrs.
Photosensitizer Uptake: Treated tumors were incubated with ALA or vehicle three hours (2 subjects) or overnight (2 subjects), then excised and subjected to fluorescence microscopy studies to measure mean fluorescence indicating PpIX conversion in tumors. Importantly, ALA delivery for the subjects undergoing overnight incubation was assisted using microneedling (Dermapen®, Salt Lake City, Utah) of the tumors. […] The primary outcome measure was the ratio of mean fluorescence intensity in tumors compared to adjacent normal tissue, as determined by confocal microscopy. PpIX signals were detected with excitation at 405 nm and emission with a 600 nm long pass filter.

neurofibromas [3] = assay: Light microscopy exam (hematoxylin & eosin) of tumors biopsied at day 2; conditions: ALA-treated tumors, day 2 after PDT
Source text: as §1

neurofibromas [4] = assay: TUNEL assay for apoptotic cell death in tumors biopsied at day 2; conditions: all TUNEL evaluated tumor samples, five subjects; p=0.002 vs vehicle
Source text: as §1

neurofibroma lesions [5] = system: neurofibroma lesions
Method: Nine adult subjects participated in part 2, four male and five female. Ages ranged from 39 to 69, with a median of 58. For each subject neurofibromalesions were selected for treatment with ALA (3-6 lesions) and vehicle (3-6 lesions) delivered with microneedling. Following an overnight (16-18 hrs.) incubation time, all treated neurofibromas were illuminated with red light at 633 nm and 105 mW/cm^2 (Omnilux Revive® LED illuminator, Photo Therapeutics, Montgomeryville, PA, USA). The dose escalation study included doses of 50, 100 or 200 J/cm^2. Each subject received one single treatment.
Study Design: This study followed a 3+3 Phase I trial design, subjects were treated starting at a dose level of 50 J/cm^2. Dose escalation was performed only after a minimum of three subjects had been evaluated at the current level. If dose-limiting toxicity (DLT) occurred in 1 of 3 subjects, 3 more subjects would be evaluated at that dose level. DLT was defined as pain during irradiation requiring cessation of the light treatment, or any serious cutaneous adverse events, such as erosions or blistering or crusting of the skin. If 0 of these 3 subjects experienced DLT, then the dose was escalated (only one DLT in six subjects). If DLT occurred in 1 of the additional 3 subjects, the […] tolerable dose (MTD) had been exceeded (two DLTs in six subjects) and 3 more subjects would be treated at the next lower dose (if only 3 subjects had been treated previously at that dose). […] The MTD is defined as that dose level immediately below the dose level at which 2 subjects of a cohort (three or six subjects) experience DLT.
as §1

## NCC(=O)CCC(=O)O [ALA, 5-aminolevulinic acid]
Neurofibroma lesions [1]; measured at 2, 4 and 12 weeks after treatment, five subjects
  Tumor size change: did not show significant change
Neurofibroma lesions [1]; post PDT treatment, individual subjects
  Growth rate ALA: −0.073 (0.063) mm^2/day and 0.028 (0.040) mm^2/day and 0.097 (0.103) mm^2/day and 0.375 (00157) mm^2/day and −0.024 (0.030) mm^2/day
Neurofibroma lesions [1]; post PDT treatment, individual subjects, same-subject placebo lesions
  Difference in growth rates (ALA vs placebo): 0.034 mm^2/day and −0.239 mm^2/day and 0.097 mm^2/day and −0.440 mm^2/day and −0.110 mm^2/day
[2]; microneedled, overnight incubation
  Fluorescence compared to adjacent normal tissue: significant fluorescence
[2]; topical ALA, incubated 3 hrs., excised tumors from two subjects
  Fluorescence in the apparent tumor zones: no fluorescence
Neurofibromas [3]
  Infiltrate on light microscopy: mixed infiltrate consisting of lymphocytes, neutrophils, and rare eosinophils
Neurofibromas [4]
  Average number of apoptotic cells per visual field: 42.5±19.9
Neurofibroma lesions [5]; ALA-PDT treated NF lesions
  Duration of post inflammatory hyperpigmentation: up to 3 months
  Time by which edema and redness subsided: ≤ 2 days
Neurofibroma lesions [5]; human, in vivo
  Blister formation, erosion or crusting: no blister formation, erosion or crusting
  Erythema and edema around lesions: marked erythema and edema
  MTD (light dose): 100 J/cm^2
  Pain and discomfort induced by red light treatment: marked pain and discomfort
  Subjects with DLT (pain requiring cessation of the light treatment): One subject
Neurofibroma lesions [5]; red light 105 mW/cm^2, 50 or 100 J/cm^2
  Duration of erythema and edema: at least 48 hrs.
